Experimental findings from US20260176320A1, “MODULATORS OF G-PROTEIN COUPLED RECEPTORS” (priority 2018, published 2026) are described below.

Like-named read-outs stand apart in the source and are kept apart here. Square brackets hold non-standard residues; d marks the D form. Peptide text beside a SMILES is read from it. * marks the point of attachment. X1 = O=C(CSCC(=O)*)NCCN1C(=O)c2ccccc2C1=O; Aib = CC(C)(N)C(=O)O

Holding throughout (type): cell-based
The target in experiment [1] is T1, GLP-1R (Homo sapiens, UniProt P43220). As to the kind of experiment: HitHunter cAMP assay (GLP-1R). The conditions noted are these: cAMP; for Emax: read-out: (Emax) GLP-1R. Put shortly: (§1)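 cAMP, luminescence read: agonist 22-pt 2× dilution in DMSO, duplicate, 30 min RT on 10,000 cells/well in 1×HBSS/10 mM HEPES/625 μM IBMX/0.2% BSA; anti-cAMP reagent 1 h RT dark, then O/N RT dark before read.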

In experiment [2] the target is T2, GIP-R (Homo sapiens, UniProt P48546).
T2 sequence (P48546 22-466): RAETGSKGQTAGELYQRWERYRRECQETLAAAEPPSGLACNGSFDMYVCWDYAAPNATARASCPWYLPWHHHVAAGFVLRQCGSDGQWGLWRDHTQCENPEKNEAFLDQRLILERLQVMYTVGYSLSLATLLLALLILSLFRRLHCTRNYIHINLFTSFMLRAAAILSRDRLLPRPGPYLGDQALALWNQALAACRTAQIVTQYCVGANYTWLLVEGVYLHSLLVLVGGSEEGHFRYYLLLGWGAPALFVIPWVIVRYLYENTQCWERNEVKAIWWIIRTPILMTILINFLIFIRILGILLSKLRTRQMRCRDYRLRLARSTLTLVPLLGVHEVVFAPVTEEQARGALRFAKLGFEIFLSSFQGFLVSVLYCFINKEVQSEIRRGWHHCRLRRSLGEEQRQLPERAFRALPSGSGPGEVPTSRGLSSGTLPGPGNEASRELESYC
As to the kind of experiment: HitHunter cAMP assay (GIP-R). The settings on record: cAMP; for Emax: read-out: (Emax) GIP-R. An outline of the steps:
as §1

The target in experiment [3] is T1, GLP-1R. Kind of experiment: PathHunter β-arrestin assay. Put shortly:
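Luminescence read-out of β-arrestin recruitment (enzyme-fragment complementation detection, 3 h at room temperature in the dark) after 90 min agonist stimulation at 37 °C. Agonists tested as 22-point 2× serial dilutions in duplicate, in medium containing 0.2% BSA.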

Setting [4] is: Table 3, read-out: EC50 GLP-1R/nM.
Where [5] appears, read: Table 3A, read-out: EC50 GLP-1R/nM.
The mark [6] stands for this setting: Table 3, read-out: EC50 GIP-R/nM.
[7] abbreviates: Table 3A, read-out: EC50 GIP-R/nM.
Where [8] appears, read: PathHunter β-arrestin assay, read-out: β-arrestin activity EC50.

T1 sequence (P43220 24-463): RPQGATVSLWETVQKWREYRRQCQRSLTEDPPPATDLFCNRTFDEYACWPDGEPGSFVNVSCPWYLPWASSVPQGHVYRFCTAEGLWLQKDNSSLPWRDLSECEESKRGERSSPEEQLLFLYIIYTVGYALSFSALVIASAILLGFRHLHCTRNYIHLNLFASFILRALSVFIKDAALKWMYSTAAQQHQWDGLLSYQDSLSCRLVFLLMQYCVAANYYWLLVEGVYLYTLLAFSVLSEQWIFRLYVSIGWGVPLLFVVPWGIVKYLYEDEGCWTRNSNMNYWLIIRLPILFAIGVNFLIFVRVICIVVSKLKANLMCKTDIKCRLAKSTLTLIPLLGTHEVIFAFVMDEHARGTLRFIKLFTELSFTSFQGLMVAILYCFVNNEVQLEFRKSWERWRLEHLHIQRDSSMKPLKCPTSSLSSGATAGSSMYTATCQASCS

Regarding `CC[C@H](C)[C@H](NC(=O)[C@H](CO)NC(=O)[C@H](Cc1ccc(O)cc1)NC(=O)[C@H](CC(=O)O)NC(=O)[C@H](CO)NC(=O)[C@@H](NC(=O)[C@H](Cc1ccccc1)NC(=O)[C@@H](NC(=O)CNC(=O)[C@H](CCC(=O)O)NC(=O)CCCNC(=O)CCN1C(=O)CSC1=O)[C@@H](C)O)[C@@H](C)O)C(=O)N[C@@H](Cc1ccc(O)cc1)C(=O)N[C@@H](CC(C)C)C(=O)N[C@@H](CC(=O)O)C(=O)N[C@@H](CCCCN)C(=O)N[C@@H](CCC(N)=O)C(=O)N[C@@H](C)C(=O)N[C@@H](C)C(=O)NC(C)(C)C(=O)N[C@@H](CCC(=O)O)C(=O)N[C@@H](Cc1ccccc1)C(=O)N[C@H](C(=O)N[C@@H](CC(N)=O)C(=O)N[C@@H](Cc1c[nH]c2ccccc12)C(=O)N[C@@H](CC(C)C)C(=O)N[C@@H](CC(C)C)C(=O)N[C@@H](C)C(=O)NCC(=O)NCC(=O)N1CCC[C@H]1C(=O)N[C@@H](CO)C(=O)N[C@@H](CO)C(=O)NCC(=O)N[C@@H](C)C(=O)N1CCC[C@H]1C(=O)N1CCC[C@H]1C(=O)N1CCC[C@H]1C(=O)N[C@@H](CO)C(=O)N[C@@H](CCCCN)C(N)=O)C(C)C` [Compound 165], the Emax fell in the range of 101 to 106% in experiment [1] (Table 3), 101 to 106% in experiment [1] (Table 3A), 91 to 98% in experiment [2] (Table 3) and 91 to 98% in experiment [2] (Table 3A). For the same compound, the EC50 in experiment [1] (setting [4]) was 0.1 to 1 nM; in experiment [1] (setting [5]), 0.1 to 1 nM; in experiment [2] (setting [6]), 1 to 10 nM; in experiment [2] (setting [7]) it was 1 to 10 nM; in experiment [3] (setting [8]), over 1000 nM.

On to `CCCCCCCCCCCCCCCC(=O)N[C@@H](CCC(=O)NCCCC[C@H](NC(=O)[C@H](CO)NC(=O)[C@@H]1CCCN1C(=O)[C@@H]1CCCN1C(=O)[C@@H]1CCCN1C(=O)[C@H](C)NC(=O)CNC(=O)[C@H](CO)NC(=O)[C@H](CO)NC(=O)[C@@H]1CCCN1C(=O)CNC(=O)CNC(=O)[C@H](C)NC(=O)[C@H](CC(C)C)NC(=O)[C@H](CC(C)C)NC(=O)[C@H](Cc1c[nH]c2ccccc12)NC(=O)[C@H](CC(N)=O)NC(=O)[C@@H](NC(=O)[C@H](Cc1ccccc1)NC(=O)[C@H](CCC(=O)O)NC(=O)C(C)(C)NC(=O)[C@H](C)NC(=O)[C@H](C)NC(=O)[C@H](CCC(N)=O)NC(=O)[C@H](CCCCN)NC(=O)[C@H](CC(=O)O)NC(=O)[C@H](CC(C)C)NC(=O)[C@H](Cc1ccc(O)cc1)NC(=O)[C@@H](NC(=O)[C@H](CO)NC(=O)[C@H](Cc1ccc(O)cc1)NC(=O)[C@H](CC(=O)O)NC(=O)[C@H](CO)NC(=O)[C@@H](NC(=O)[C@H](Cc1ccccc1)NC(=O)[C@@H](NC(=O)CNC(=O)[C@H](CCC(=O)O)NC(=O)CCNC(=O)CCN1CCCC1=O)[C@@H](C)O)[C@@H](C)O)[C@@H](C)CC)C(C)C)C(N)=O)C(=O)O` [Compound 265], for which the Emax is 100% in experiment [1] (Table 3A) and 80% in experiment [2] (Table 3A). Besides, the EC50 was under 0.1 nM in experiment [1] (setting [5]), 0.1 to 1 nM in experiment [2] (setting [7]) and under 10 nM in experiment [3] (setting [8]).

On to `CCCCCCCCCCCCCCCC(=O)N[C@@H](CCC(=O)NCCCC[C@H](NC(=O)[C@H](CO)NC(=O)[C@@H]1CCCN1C(=O)[C@@H]1CCCN1C(=O)[C@@H]1CCCN1C(=O)[C@H](C)NC(=O)CNC(=O)[C@H](CO)NC(=O)[C@H](CO)NC(=O)[C@@H]1CCCN1C(=O)CNC(=O)CNC(=O)[C@H](C)NC(=O)[C@H](CC(C)C)NC(=O)[C@H](CC(C)C)NC(=O)[C@H](Cc1c[nH]c2ccccc12)NC(=O)[C@H](CC(N)=O)NC(=O)[C@@H](NC(=O)[C@H](Cc1ccccc1)NC(=O)[C@H](CCC(=O)O)NC(=O)C(C)(C)NC(=O)[C@H](C)NC(=O)[C@H](C)NC(=O)[C@H](CCC(N)=O)NC(=O)[C@H](CCCCN)NC(=O)[C@H](CC(=O)O)NC(=O)[C@H](CC(C)C)NC(=O)[C@H](Cc1ccc(O)cc1)NC(=O)[C@@H](NC(=O)[C@H](CO)NC(=O)[C@H](Cc1ccc(O)cc1)NC(=O)[C@H](CC(=O)O)NC(=O)[C@H](CO)NC(=O)[C@@H](NC(=O)[C@H](Cc1ccccc1)NC(=O)[C@@H](NC(=O)CNC(=O)[C@H](CCC(=O)O)NC(=O)[C@H](C)NC(=O)CCN1CCCCC1=O)[C@@H](C)O)[C@@H](C)O)[C@@H](C)CC)C(C)C)C(N)=O)C(=O)O` [Compound 212], for which the Emax in experiment [1] (Table 3A) came to 90%; in experiment [2] (Table 3A) it was 50%. In addition, the EC50 in experiment [1] (setting [5]) was under 0.1 nM; in experiment [2] (setting [7]), 1 to 10 nM; in experiment [3] (setting [8]) it was 10 to 1000 nM.

With `CCCCCCCCCCCCCCCC(=O)N[C@@H](CCC(=O)NCCCC[C@H](NC(=O)[C@H](CO)NC(=O)[C@@H]1CCCN1C(=O)[C@@H]1CCCN1C(=O)[C@@H]1CCCN1C(=O)[C@H](C)NC(=O)CNC(=O)[C@H](CO)NC(=O)[C@H](CO)NC(=O)[C@@H]1CCCN1C(=O)CNC(=O)CNC(=O)[C@H](C)NC(=O)[C@H](CC(C)C)NC(=O)[C@H](CC(C)C)NC(=O)[C@H](Cc1c[nH]c2ccccc12)NC(=O)[C@H](CC(N)=O)NC(=O)[C@@H](NC(=O)[C@H](Cc1ccccc1)NC(=O)[C@H](CCC(=O)O)NC(=O)C(C)(C)NC(=O)[C@H](C)NC(=O)[C@H](C)NC(=O)[C@H](CCC(N)=O)NC(=O)[C@H](CCCCN)NC(=O)[C@H](CC(=O)O)NC(=O)[C@H](CC(C)C)NC(=O)[C@H](Cc1ccc(O)cc1)NC(=O)[C@@H](NC(=O)[C@H](CO)NC(=O)[C@H](Cc1ccc(O)cc1)NC(=O)[C@H](CC(=O)O)NC(=O)[C@H](CO)NC(=O)[C@@H](NC(=O)[C@H](Cc1ccccc1)NC(=O)[C@@H](NC(=O)CNC(=O)[C@H](CCC(=O)O)NC(=O)CSCC(=O)NCCn1ccc(=O)[nH]c1=O)[C@@H](C)O)[C@@H](C)O)[C@@H](C)CC)C(C)C)C(N)=O)C(=O)O` [Compound 239], the EC50 was 0.1 to 1 nM in experiment [1] (EC50 GLP-1R/nM, Table 3A); 10 to 100 nM in experiment [2] (EC50 GIP-R/nM, Table 3A); over 1000 nM in experiment [3]. For the same compound, the Emax in experiment [1] (Table 3A) worked out at 100%; in experiment [2] (Table 3A), 46%.

For the compound `CC[C@H](C)[C@H](NC(=O)[C@H](CO)NC(=O)[C@H](Cc1ccc(O)cc1)NC(=O)[C@H](CC(=O)O)NC(=O)[C@H](CO)NC(=O)[C@@H](NC(=O)[C@H](Cc1ccccc1)NC(=O)[C@@H](NC(=O)CNC(=O)[C@H](CCC(=O)O)NC(=O)CSCC(=O)NCCN1C(=O)c2ccccc2C1=O)[C@@H](C)O)[C@@H](C)O)C(=O)N[C@@H](Cc1ccc(O)cc1)C(=O)N[C@@H](CC(C)C)C(=O)N[C@@H](CC(=O)O)C(=O)N[C@@H](CCCCN)C(=O)N[C@@H](CCC(N)=O)C(=O)N[C@@H](C)C(=O)N[C@H](C(=O)NC(C)(C)C(=O)N[C@@H](CCC(=O)O)C(=O)N[C@@H](Cc1ccccc1)C(=O)N[C@H](C(=O)N[C@@H](CC(N)=O)C(=O)N[C@@H](Cc1c[nH]c2ccccc12)C(=O)N[C@@H](CC(C)C)C(=O)N[C@@H](CC(C)C)C(=O)N[C@@H](C)C(=O)NCC(=O)NCC(=O)N1CCC[C@H]1C(=O)N[C@@H](CO)C(=O)N[C@@H](CO)C(=O)NCC(=O)N[C@@H](C)C(=O)N1CCC[C@H]1C(=O)N1CCC[C@H]1C(=O)N1CCC[C@H]1C(=O)N[C@@H](CO)C(=O)N[C@@H](CCCCN)C(N)=O)C(C)C)C(C)C` [Compound 147] (X1-EGTFTSDYSIYLDKQAV[Aib]EFVNWLLAGGPSSGAPPPSK-NH2), the EC50 in experiment [1] (EC50 GLP-1R/nM, Table 3) was 1 to 10 nM; in experiment [1] (EC50 GLP-1R/nM, Table 3A) it was 1 to 10 nM; in experiment [2] (EC50 GIP-R/nM, Table 3), under 0.1 nM; in experiment [2] (EC50 GIP-R/nM, Table 3A), under 0.1 nM; in experiment [3], over 1000 nM. Also, the Emax in experiment [1] (Table 3) was in the range of 87 to 97%; in experiment [1] (Table 3A) it was 87 to 97%; in experiment [2] (Table 3), 114 to 128%; in experiment [2] (Table 3A), 114 to 128%.

For `CCCCCCCCCCCCCCCC(=O)N[C@@H](CCC(=O)NCCCC[C@H](NC(=O)[C@H](CO)NC(=O)[C@@H]1CCCN1C(=O)[C@@H]1CCCN1C(=O)[C@@H]1CCCN1C(=O)[C@H](C)NC(=O)CNC(=O)[C@H](CO)NC(=O)[C@H](CO)NC(=O)[C@@H]1CCCN1C(=O)CNC(=O)CNC(=O)[C@H](C)NC(=O)[C@H](CC(C)C)NC(=O)[C@H](CC(C)C)NC(=O)[C@H](Cc1c[nH]c2ccccc12)NC(=O)[C@H](CC(N)=O)NC(=O)[C@@H](NC(=O)[C@H](Cc1ccccc1)NC(=O)[C@H](CCC(=O)O)NC(=O)C(C)(C)NC(=O)[C@H](C)NC(=O)[C@H](C)NC(=O)[C@H](CCC(N)=O)NC(=O)[C@H](CCCCN)NC(=O)[C@H](CC(=O)O)NC(=O)[C@H](CC(C)C)NC(=O)[C@H](Cc1ccc(O)cc1)NC(=O)[C@@H](NC(=O)[C@H](CO)NC(=O)[C@H](Cc1ccc(O)cc1)NC(=O)[C@H](CC(=O)O)NC(=O)[C@H](CO)NC(=O)[C@@H](NC(=O)[C@H](Cc1ccccc1)NC(=O)[C@@H](NC(=O)CNC(=O)[C@H](CCC(=O)O)NC(=O)CSCC(=O)NCCN1CC(=O)N(C)CC1=O)[C@@H](C)O)[C@@H](C)O)[C@@H](C)CC)C(C)C)C(N)=O)C(=O)O` [Compound 12], the Emax in experiment [1] (Table 3) turned out to be 91%; in experiment [1] (Table 3A) it was 91%; in experiment [2] (Table 3), 85%; in experiment [2] (Table 3A), 85%. The EC50 is 1 to 10 nM in experiment [1] (setting [4]); 1 to 10 nM in experiment [1] (setting [5]); 0.1 to 1 nM in experiment [2] (setting [6]); 0.1 to 1 nM in experiment [2] (setting [7]); over 1000 nM in experiment [3] (setting [8]).
